These results are taken from ChEMBL document CHEMBL1136913, “Stereoselective synthesis and biological evaluations of novel 3'-deoxy-4'-azaribonucleosides as inhibitors of hepatitis C virus RNA replication” (J Med Chem, 2009).

Each structure is given as a SMILES string.

One data set concerns Hepatitis C virus. Put plainly: Antiviral activity against HCV infected in human HBI10A cells assessed as inhibition of viral-NS3 expression by ELISA. Format: functional, organism-based, Hepacivirus hominis. Background: ELISA stands for enzyme-linked immunosorbent assay.
The nature of data set [1]: Cytotoxicity against human HBI10A cells after 20 hrs by MTS assay. Format: cell-based. For orientation: Tetrazolium assays rely on reduction of a dye to a coloured formazan, in cell work by metabolically active cells.
Data set [2] is described as follows: Selectivity index, ratio of CC50 for human HBI10A cells to IC50 for HCV. Format: functional.

With `CC(C)(C)OC(=O)N1[C@H](CO)C[C@@H](O)[C@@H]1n1ccc(N)nc1=O`, in the data set on Hepatitis C virus, the IC50 (usually the concentration needed to halve the response being measured) came to 96 µM. The CC50 – broadly, the concentration giving 50% cytotoxicity – at 20 h in data set [1] was > 1000 µM.

On to `CCOC(=O)N1[C@H](CO)C[C@@H](O)[C@@H]1n1cc(F)c(=O)[nH]c1=O`, for which the half-maximal inhibitory concentration (IC50) with Hepatitis C virus worked out at 4.8 µM. Besides, the CC50 at 20 h in data set [1] is > 1000 µM. Besides, in data set [2], the “Ratio CC50/IC50” value was “>=208”.

In the case of `CCOC(=O)N1[C@H](CO)C[C@@H](O)[C@H]1n1cc(F)c(=O)[nH]c1=O`, the half-maximal inhibitory concentration (IC50) with Hepatitis C virus is > 1000 µM. In data set [1], this molecule came in with a CC50 at 20 h of 200 µM.

`Cc1cn([C@H]2[C@H](O)C[C@@H](CO)N2C(=O)OC(C)(C)C)c(=O)[nH]c1=O`: the IC50 in the data set with Hepatitis C virus was 0.018 µM. The CC50 at 20 h in data set [1] was > 1000 µM.

In the case of `CC(C)(C)OC(=O)N1[C@H](CO)C[C@@H](O)[C@@H]1n1cc(F)c(=O)[nH]c1=O`, the IC50 with Hepatitis C virus amounted to 0.00035 µM. The midpoint of cytotoxicity in data set [1], the CC50 at 20 h, lay at 623 µM.

In the case of `CC(C)(C)OC(=O)N1[C@H](CO)C[C@@H](O)[C@@H]1n1ccc(=O)[nH]c1=O`, the IC50 with Hepatitis C virus amounted to 40.6 µM. The cytotoxic concentration (CC50) at 20 h in data set [1] was > 1000 µM.
